Experimental data reported in patent US10399939B2, “Tetrahydronaphthalene estrogen receptor modulators and uses thereof” (Genentech, Inc., priority 2015, dated 2019).

Biological target: ER-alpha (WT) (Homo sapiens (Human), UniProt P03372)
Assay: Breast Cancer Cell ERa High Content Fluorescence Imaging Degradation Assay (ER-alpha MCF7 HCS)
Format: cell-based
Details: MCF7 breast cancer cells; plateau of the maximal effect (ERa degradation); DMSO and 5 nM Fulvestrant define 0% and 100% changes in ESR1
Method: Example 901: Breast Cancer Cell ERa High Content Fluorescence Imaging Degradation Assay
MCF7 breast cancer cells were seeded on day 1 at a density of 10,000 cells per well in 384 well poly-lysine coated tissue culture plate (Greiner # T-3101-4), in 50 µL/well RPMI (phenol red free), 10% FBS (Charcoal stripped), containing L-glutamine. […] Compounds and controls were dispensed using a Labcyte Echo acoustic dispenser to dispense compounds with a pre-defined serial dilution (1.8×, 10 point, in duplicate) and appropriate backfill and control compounds (final total volume transferred was 417.5 nL and compound dispense volume ranges from 2.5 nL to 417.5 nL; 0.84% DMSO (v/v) final), ultimately producing a concentration range from 0.05 nM to 835 nM. Cell plates were incubated at 37° C., for 4 hours. Fixation and permeabilization were carried out using a Biotek EL406 plate washer and dispenser as follows. Cells were fixed by addition of 15 μL of 16% paraformaldehyde (Electron Microscopy Sciences #15710-S) directly to the 50 μL cell culture medium in each well using the peristaltic pump 5 μL cassette on a Biotek EL406 (final concentration of formaldehyde was 3.7% w/v). Samples were incubated 30 minutes. Well contents was aspirated and 50 μL/well of Phosphate Buffered Saline (PBS) containing 0.5% w/v bovine serum albumen, 0.5% v/v Triton X-100 (Antibody Dilution Buffer) was added to each well. Samples were incubated for 30 minutes. Well contents were aspirated and washed 3 times with 100 μL/well of PBS. Immunofluorescence staining of estrogen receptor alpha (ESR1) was carried out using a Biotek EL406 plate washer and dispenser as follows. The well supernatant was aspirated from the wells and 25 μL/well of anti-ESR1 mAb (F10) (Santa Cruz sc-8002) diluted 1:1000 in Antibody Dilution Buffer was dispensed. Samples were incubated for 2 hours at room temperature. Samples were washed 4 times with 100 μL/well of PBS. 25 μL (microliters)/well of secondary antibody solution (Alexafluor® 488 conjugate anti-mouse IgG (LifeTechnologies #A21202) diluted 1:1000 and Hoechst 33342 1 μg/ml diluted in Antibody Dilution Buffer) were dispensed into each well. Samples were incubated for 2 hours at room temperature. Samples were washed 3 times with 100 μL/well of PBS using a Biotek EL406. Quantitative fluorescence imaging of ESR1 was carried out using a Cellomics Arrayscan V® (Thermo). Fluorescence images of the samples (Channel 1: XF53 Hoechst (DNA stain); Channel 2: XF53 FITC (ESR1 stain)) were acquired using a Cellomics VTI Arrayscan using the Bioapplication “Compartmental Analysis” using the auto-exposure (based on DMSO control wells) setting “peak target percentile” set to 25% target saturation for both channels. Channel 1 (DNA stain) was used to define the nuclear region (Circ). Measurements of “Mean_CircAvgIntCh2”, which is the Alexafluor 488 fluorescence intensity (ESR1) within the nuclear region, was measured on a per cell basis and averaged over all the measured cells. Data analysis was carried out using Genedata Screener Software, with DMSO and 5 nM Fulvestrant treated samples being used to define the 0% and 100% changes in ESR1. The “Robust Fit” method was used to define the inflexion point of curve (EC50) and the plateau of the maximal effect (Sinf).

Sequence of ER-alpha (WT) (P03372 whole entry): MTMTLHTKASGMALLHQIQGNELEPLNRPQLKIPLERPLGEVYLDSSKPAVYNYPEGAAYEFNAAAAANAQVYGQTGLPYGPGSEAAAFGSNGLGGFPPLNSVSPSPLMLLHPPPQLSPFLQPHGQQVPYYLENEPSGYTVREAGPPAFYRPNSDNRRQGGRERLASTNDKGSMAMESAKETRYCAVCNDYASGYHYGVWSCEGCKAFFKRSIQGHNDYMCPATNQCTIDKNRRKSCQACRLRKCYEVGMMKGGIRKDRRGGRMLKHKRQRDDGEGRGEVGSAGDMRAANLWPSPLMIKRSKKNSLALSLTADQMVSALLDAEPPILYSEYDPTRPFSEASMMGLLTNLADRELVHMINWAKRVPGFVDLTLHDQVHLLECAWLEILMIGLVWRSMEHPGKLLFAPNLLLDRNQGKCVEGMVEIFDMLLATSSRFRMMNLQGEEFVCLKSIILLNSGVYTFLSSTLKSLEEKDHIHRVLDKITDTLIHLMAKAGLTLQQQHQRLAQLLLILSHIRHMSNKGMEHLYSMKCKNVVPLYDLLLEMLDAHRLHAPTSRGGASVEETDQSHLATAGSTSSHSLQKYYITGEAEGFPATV

## Oc1ccc2c(c1)CC[C@H](c1ccccc1)[C@@H]2c1ccc(OCCN2CCCC2)cc1 [lasofoxifene, (5R,6S)-6-phenyl-5-(4-(2-(pyrrolidin-1-yl)ethoxy)phenyl)-5,6,7,8-tetrahydronaphthalen-2-ol, reference compound]
  ER-alpha (WT) MCF7 HCS (S inf): −73.5%
